Key:
[1] = test system: larvae of the mustard beetle (Phaedon cochleariae); test: Phaedon larvae test; format: in vivo; conditions: cabbage leaves dipped
Protocol: (§1) [table] To produce a suitable preparation of active compound, 1 part by weight of active compound is mixed with the stated amounts of solvent and emulsifier, and the concentrate is diluted with emulsifier-containing water to the desired concentration. Cabbage leaves (Brassica oleracea) are treated by being dipped into the preparation of active compound of the desired concentration and are populated with the larvae of the mustard beetle (Phaedon cochleariae) while the leaves are still moist. After the desired period of time, the kill in % is determined. 100% means that all beetle larvae have been killed; 0% means that none of the beetle larvae have been killed.

Avena fatua [2] = test: Post-emergence test; format: in vivo; conditions: after three weeks
Protocol: (§2) [table] To produce a suitable preparation of active compound, 1 part by weight of active compound is mixed with the stated amount of solvent, the stated amount of emulsifier is added and the concentrate is diluted with water to the desired concentration. Test plants of a height of 5 to 15 cm are sprayed with the preparation of active compound such that the particular amounts of active compound desired are applied per unit area. The concentration of the spray liquor is chosen such that the particular amounts of active compound desired are applied in 1000 1 of water/ha. After three weeks, the degree of damage to the plants is rated in % damage in comparison to the development of the untreated control. [table]

Digitaria = test: Post-emergence test; format: in vivo; conditions: after three weeks
Protocol: as §2

Echinochloa = test: Post-emergence test; format: in vivo; conditions: after three weeks
Protocol: as §2

Stellaria = test: Post-emergence test; format: in vivo; conditions: 250 g ai/ha, after three weeks
Protocol: as §2

rice = test: Post-emergence test; format: in vivo; conditions: 250 g ai/ha, after three weeks
Protocol: as §2

[3] = test system: caterpillars of the army worm (Spodoptera frugiperda); test: Spodoptera frugiperda test; format: in vivo; conditions: cabbage leaves dipped
Protocol: as §1, with “caterpillars” for “the larvae”, “army worm (Spodoptera frugiperda)” for “mustard beetle (Phaedon cochleariae)”, “caterpillars” for “beetle larvae”

[4] = test system: greenhouse red spider mite (Tetranychus urticae); test: Tetranychus test (OP-resistant/dip treatment); format: in vivo; conditions: bean plants dipped, OP-resistant
Protocol: [table] To produce a suitable preparation of active compound, 1 part by weight of active compound is mixed with the stated amounts of solvent and emulsifier, and the concentrate is diluted with emulsifier-containing water to the desired concentration. Bean plants (Phaseolus vulgaris) which are heavily infested by all stages of the greenhouse red spider mite (Tetranychus urticae) are dipped into a preparation of active compound of the desired concentration. After the desired period of time, the effect in % is determined. 100% means that all spider mites have been killed. 0% means that none of the spider mites have been killed.

Abutilon = test: Post-emergence test; format: in vivo; conditions: 250 g ai/ha, after three weeks
Protocol: as §2

Alopecurus = test: Post-emergence test; format: in vivo; conditions: after three weeks
Protocol: as §2

Amaranthus = test: Post-emergence test; format: in vivo; conditions: 250 g ai/ha, after three weeks
Protocol: as §2

Setaria [5] = test: Post-emergence test; format: in vivo; conditions: 250 g ai/ha, after three weeks
Protocol: as §2

[6] = test system: peach aphid (Myzus persicae); test: Myzus test; format: in vivo; conditions: cabbage leaves dipped
Protocol: as §1, with “oleracea) which are heavily infested by the peach aphid (Myzus persicae)” for “oleracea)”, “concentration.” for “concentration and are populated with the larvae of the mustard beetle (Phaedon cochleariae) while the leaves are still moist.”, “aphids” for “beetle larvae”

Sinapis = test: Post-emergence test; format: in vivo; conditions: 250 g ai/ha, after three weeks
Protocol: as §2

sugar beet [7] = test: Post-emergence test; format: in vivo; conditions: after three weeks
Protocol: as §2

Meloidogyne incognita = test: Meloidogyne test; format: in vivo; conditions: Meloidogyne incognita egg/larvae on lettuce in sand
Protocol: [table] To produce a suitable preparation of active compound, 1 part by weight of active compound is mixed with the stated amounts of solvent and emulsifier, and the concentrate is diluted with water to the desired concentration. Containers are filled with sand, solution of active compound, Meloidogyne incognita egg/larvae suspension and lettuce seeds. The lettuce seeds germinate and the plants develop. On the roots, galls are formed. After the desired period of time, the nematicidal action in % is determined using the formation of galls as a measure. 100% means that no galls have been found; 0% means that the number of galls on the treated plants corresponds to that on the untreated control.

Avena fatua [8] = test: Pre-emergence test; format: in vivo; conditions: 250 g ai/ha, after three weeks
Protocol: (§3) [table] To produce a suitable preparation of active compound, 1 part by weight of active compound is mixed with the stated amount of solvent, the stated amount of emulsifier is added and the concentrate is diluted with water to the desired concentration. Seeds of the test plants are sown in normal soil. After about 24 hours, the soil is sprayed with the preparation of active compound such that the particular amounts of active compound desired are applied per unit area. The concentration of the spray liquor is chosen such that the particular amounts of active compound desired are applied in 1000 1 of water/ha. After three weeks, the degree of damage to the plants is rated in % damage in comparison to the development of the untreated control. [table]

Bromus = test: Pre-emergence test; format: in vivo; conditions: 250 g ai/ha, after three weeks
Protocol: as §3

Lolium = test: Pre-emergence test; format: in vivo; conditions: 250 g ai/ha, after three weeks
Protocol: as §3

Setaria [9] = test: Pre-emergence test; format: in vivo; conditions: 250 g ai/ha, after three weeks
Protocol: as §3

oilseed rape = test: Pre-emergence test; format: in vivo; conditions: 250 g ai/ha, after three weeks
Protocol: as §3

sugar beet [10] = test: Pre-emergence test; format: in vivo; conditions: 250 g ai/ha, after three weeks
Protocol: as §3

Soya bean = test: Post-emergence test; format: in vivo; conditions: 250 g ai/ha, after three weeks
Protocol: as §2

[11] = logP (HPLC; acetonitrile); format: physicochemical; conditions: for logP (pH2): pH 2
From the text: Yield: 2.4 g ( ? 41.62% of theory), logP (acidic) 4.54 (HPLC; acetonitrile).

For COC1CCC2(CC1)NC(=O)C(c1nc(-c3ccc(Cl)cc3)sc1C)=C2O (single isomer, unassigned) [Example I-1-A-a-3], the “kill of beetle larvae” value [1] was “good activity”, the “% damage Avena fatua” value (Avena fatua [2]; 250 g ai/ha) was 100% and the “% damage Digitaria” value (Digitaria; 250 g ai/ha) was 100%. For the same compound, the “% damage Echinochloa” value (Echinochloa; 250 g ai/ha) was 100%, the “% damage Stellaria” value (Stellaria) was 90% and the “% damage rice” value (rice) was 10%.
With CCOC1CCC2(CC1)NC(=O)C(c1nc(-c3ccc(Cl)cc3)sc1C)=C2O (single isomer, unassigned) [Example I-1-A-a-4] the “kill of beetle larvae” value [1] was “good activity”, the kill of caterpillars [3] was “good activity” and the “effect on spider mites” value [4] was “good activity”. The “% damage Abutilon” value (Abutilon) was 80%, the “% damage Alopecurus” value (Alopecurus; 250 g ai/ha) was 95% and the “% damage Amaranthus” value (Amaranthus) was 95%. For the same compound, the “% damage Avena fatua” value (Avena fatua [2]; 250 g ai/ha) was 100%, the “% damage Echinochloa” value (Echinochloa; 250 g ai/ha) was 100% and the “% damage Setaria” value (Setaria [5]) was 100%.
With COC1CCC2(CC1)NC(=O)C(c1nc(-c3ccc(C)cc3)sc1C)=C2O (single isomer, unassigned) [Example I-1-A-a-8] the kill of aphids [6] was “good activity” and the “kill of beetle larvae” value [1] was “good activity”.
In the case of Cc1sc(-c2ccc(Cl)cc2)nc1C1=C(O)C2(CCC(C)CC2)NC1=O (stereo not shown) [Example I-1-A-a-1], the “kill of beetle larvae” value [1] is reported as “good activity”, the kill of caterpillars [3] is reported as “good activity” and the “% damage Alopecurus” value (Alopecurus; 250 g ai/ha) is reported as 80%. The “% damage Amaranthus” value (Amaranthus) was 70%, the “% damage Avena fatua” value (Avena fatua [2]; 250 g ai/ha) was 80% and the “% damage Echinochloa” value (Echinochloa; 250 g ai/ha) was 95%. For the same compound, the “% damage Sinapis” value (Sinapis) was 80%.
With Cc1sc(-c2ccc(Cl)cc2)nc1C1=C(O)C(C)(C)NC1=O [Example I-1-A-a-2] the “kill of beetle larvae” value [1] was “good activity”, the kill of caterpillars [3] was “good activity” and the “% damage Alopecurus” value (Alopecurus; 250 g ai/ha) was 70%. The “% damage Amaranthus” value (Amaranthus) was 90%, the “% damage Echinochloa” value (Echinochloa; 250 g ai/ha) was 90% and the “% damage Setaria” value (Setaria [5]) was 95%.
In the case of Cc1sc(-c2ccc(Cl)cc2)nc1C1=C(O)C2(CCOCC2)NC1=O [Example I-1-A-a-5], the kill of aphids [6] is reported as “good activity”, the “kill of beetle larvae” value [1] is reported as “good activity” and the kill of caterpillars [3] is reported as “good activity”. The “effect on spider mites” value [4] was “good activity”, the “% damage Alopecurus” value (Alopecurus; 250 g ai/ha) was 80% and the “% damage Amaranthus” value (Amaranthus) was 90%. The “% damage Echinochloa” value (Echinochloa; 250 g ai/ha) was 100%.
For Cc1sc(-c2ccc(Cl)cc2)nc1C1=C(O)C2(CCCOC2)NC1=O (stereo not shown) [Example I-1-A-a-6], the kill of aphids [6] was “good activity”, the “kill of beetle larvae” value [1] was “good activity” and the kill of caterpillars [3] was “good activity”. The “effect on spider mites” value [4] was “good activity”, the “% damage Alopecurus” value (Alopecurus; 125 g ai/ha) was 90% and the “% damage Avena fatua” value (Avena fatua [2]; 125 g ai/ha) was 90%. For the same compound, the “% damage Digitaria” value (Digitaria; 125 g ai/ha) was 95%, the “% damage Echinochloa” value (Echinochloa; 125 g ai/ha) was 90% and the “% damage sugar beet” value (sugar beet [7]; 125 g ai/ha) was 0%.
With COC1CCC2(CC1)NC(=O)C(c1nc(-c3ccc(Cl)cc3)sc1C)=C2OC(=O)C(C)C (stereo not shown) [Example I-1-A-b-1] the “% damage Abutilon” value (Abutilon) was 80%, the “% damage Alopecurus” value (Alopecurus; 250 g ai/ha) was 95% and the “% damage Amaranthus” value (Amaranthus) was 80%. The “% damage Avena fatua” value (Avena fatua [2]; 250 g ai/ha) was 100%, the “% damage Echinochloa” value (Echinochloa; 250 g ai/ha) was 100% and the “% damage Setaria” value (Setaria [5]) was 100%.
With CCOC(=O)OC1=C(c2nc(-c3ccc(Cl)cc3)sc2C)C(=O)NC12CCC(OC)CC2 (stereo not shown) [Example I-1-A-c-1] the “kill of beetle larvae” value [1] was “good activity”, the kill of caterpillars [3] was “good activity” and the “% damage Alopecurus” value (Alopecurus; 250 g ai/ha) was 80%. The “% damage Avena fatua” value (Avena fatua [2]; 250 g ai/ha) was 95%, the “% damage Echinochloa” value (Echinochloa; 250 g ai/ha) was 95% and the “% damage Setaria” value (Setaria [5]) was 90%.
For Cc1sc(-c2ccc(Cl)cc2)nc1C1=C(O)C(C)(C)OC1=O [Example I-2-A-a-2], the “nematicidal action (formation of galls)” value (Meloidogyne incognita) was “good activity”, the “kill of beetle larvae” value [1] was “good activity” and the “effect on spider mites” value [4] was “good activity”. The “% damage Avena fatua” value (Avena fatua [8]) was 90%, the “% damage Bromus” value (Bromus) was 90% and the “% damage Lolium” value (Lolium) was 100%. The “% damage Setaria” value (Setaria [9]) was 100%, the “% damage oilseed rape” value (oilseed rape) was 0% and the “% damage sugar beet” value (sugar beet [10]) was 0%. The “% damage Avena fatua” value (Avena fatua [2]; 250 g ai/ha) was 90%, the “% damage Digitaria” value (Digitaria; 250 g ai/ha) was 90% and the “% damage Echinochloa” value (Echinochloa; 250 g ai/ha) was 100%. For the same compound, the “% damage Setaria” value (Setaria [5]) was 95%, the “% damage Soya bean” value (Soya bean) was 0% and the “% damage sugar beet” value (sugar beet [7]; 250 g ai/ha) was 0%.
With Cc1oc(-c2ccccc2)nc1C1=C(O)C(C)(C)OC1=O [Example I-2-B-a-2] the “logP (pH2)” value [11] was 3.43.
CCOC(=O)C1(OC(=O)Cc2nc(-c3ccc(Cl)cc3)sc2C)CCC(OC)CC1 (stereo not shown) [III-A-1] showed a chromatographic logP ([11]; acidic, HPLC, acetonitrile) of 4.54.
With CCOC(=O)C(C)(C)OC(=O)Cc1nc(-c2ccc(Cl)cc2)sc1C [III-A-2] the “logP (pH2)” value [11] was 4.53.

— patent publication US7141533B2, “Hetaryl-substituted heterocycles” (Bayer CropScience AG, priority 2000, dated 2006)
